Results taken from patent US12263248B2, “Compounds and compositions for intracellular delivery of therapeutic agents” (ModernaTX, Inc., priority 2018, dated 2025).

Legend:
[1] = Encapsulation efficiency of RNA (QUANT-IT RIBOGREEN RNA assay); type: physicochemical; settings: Table 1A
Procedure, shortened: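 RiboGreen fluorescence (ex ~480, em ~520 nm) compared between intact samples and Triton X-100-lysed samples after 15 min at 37 °C in TE buffer, pH 7.5. Percent free RNA is the blank-corrected intact/disrupted ratio.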

[2] = Apparent (surface) pKa of the LNP formulation (TNS assay); type: physicochemical; settings: Table 1A
Procedure, shortened: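 Fluorescence of TNS probe added to LNP samples (mRNA 0.04 mg/mL) was read across 21 buffers of pH about 3-12, triplicate per pH. The inflection point of the sigmoidal fluorescence-vs-pH curve, […], gives apparent pKa; method validated in 1× PBS and Tris/sucrose buffer.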

[3] = Particle size and polydispersity index of nanoparticle compositions (Zetasizer Nano ZS); type: physicochemical; settings: Table 1A; for Size (nm): lipid:DSPC:cholesterol:PEG-DMG 50:10:38.5:1.5 mol %
Procedure, shortened: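 Values are size and PDI readings from a Zetasizer Nano ZS. Measurements are taken in 1×PBS; zeta potential, by contrast, uses 15 mM PBS.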

IL-6, IP-10 = assay: Cytokine induction in mice upon intravenous administration; type: in vivo; set-up: Cytokine induction IL-6 / Cytokine induction IP-10: unit not given here; settings: 0.5 mpk, 6 hours; for Cytokine induction IL-6 / Cytokine induction IP-10: intravenous
Source text: The introduction of foreign material into a mammalian body induces an innate immune response that promotes cytokine production. Such immune responses to, for example, nanoparticle compositions including therapeutic and/or prophylactics, are undesirable. The induction of certain cytokines is thus measured to evaluate the […] of nanoparticle compositions. The concentrations of various cytokines in mice upon intravenous administration of nanoparticle compositions presented in Table 1A at a dosage of 0.5 mpk was measured at 6 hours. The standard MC3 formulation and a PBS control were also tested. As is evident in Table 7, IL-6 induction was highest for compositions including Compounds 1, 3, 9, 19, and 26, while IP-10 induction was highest for compositions including Compounds 3, 4, 7, 20, and 26. IL-6 induction was lowest for compositions including Compounds 4, 11, 12, and 28. IP-10 induction was lowest for compositions including Compounds 10, 11, 12, 13, 15, 17, and 18.

luciferase (Luc) mRNA [4] = assay: Luc expression, whole body bioluminescence after intravenous administration to mice; type: in vivo; settings: for Total Flux 3 hours / Total Flux 6 hours / Total Flux 24 hours: Luc mRNA
Procedure, shortened: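 Bioluminescence, read as region-of-interest total flux at 3, 6 and 24 h, followed a single 0.5 mg/kg intravenous dose of Luc mRNA-loaded nanoparticles in mice (n=6). Luciferin substrate (200 μL, 15 mg/mL in PBS) was injected intraperitoneally into CD-1 mice 15 minutes ahead of each imaging point.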

luciferase (Luc) mRNA [5] = assay: Luc expression in liver, lung, spleen and femur 6 hours after intravenous administration; type: in vivo; settings: mice, intravenous, 0.5 mpk
Procedure, shortened: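 LNP-formulated mRNA given IV to mice (n=3) at 0.5 mpk; at 6 h, bioluminescence imaged ex vivo 15 min after IP D-luciferin (15 mg/mL, 200 μL), organs imaged within 25 min. Values are total flux by region of interest.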

| SMILES | EE (%) [1] [%] | pKa [2] | PDI [3] | Size (nm) [3] [nm] | IP-10 induction (IL-6, IP-10; i.v., in words) | Cytokine induction IL-6 (IL-6, IP-10) | Cytokine induction IP-10 (IL-6, IP-10) | IL-6 induction (IL-6, IP-10; i.v., in words) | Total Flux 3 hours (luciferase (Luc) mRNA [4]; mice, i.v., 0.5 mg/kg) | Total Flux 6 hours (luciferase (Luc) mRNA [4]; mice, i.v., 0.5 mg/kg) | Total Flux 24 hours (luciferase (Luc) mRNA [4]; mice, i.v., 0.5 mg/kg) | Total Flux Femur (luciferase (Luc) mRNA [5]) | Total Flux Liver (luciferase (Luc) mRNA [5]) | Total Flux Lung (luciferase (Luc) mRNA [5]) | Total Flux Spleen (luciferase (Luc) mRNA [5]) | Fold increase in total body Luc Flux relative to MC3 at 6 h (luciferase (Luc) mRNA [4]; Table 3A, i.v. administration) | flux at all timepoints measured (luciferase (Luc) mRNA [4]; mice, i.v., 0.5 mg/kg, 3, 6 and 24 hour, in words) |
| --- | --- | --- | --- | --- | --- | --- | --- | --- | --- | --- | --- | --- | --- | --- | --- | --- | --- |
| CCCCCCCCCOC(=O)CCCCCCCN(CCCCCCCC(=O)OC(CCCCCCCC)CCCCCCCC)CCOC [Compound 15, Heptadecan-9-yl 8-((2-methoxyethyl)(8-(nonyloxy)-8-oxooctyl)amino)octanoate] | 92.47 | 5.58 | 0.094 | 111.1 | lowest | 64.65 | 184.30 |  | 4.31E+08 | 4.41E+07 | 2.05E+06 | 5.93E+04 | 6.23E+06 | 6.41E+04 | 9.01E+05 |  |  |
| CCCCCCCCCOC(=O)CCCCCCCN(CCCCCCCC(=O)OC(CCCCCCCC)CCCCCCCC)CC(O)CC (centres unmarked) [Compound 13, Heptadecan-9-yl 8-((2-hydroxybutyl)(8-(nonyloxy)-8-oxooctyl)amino) octanoate] | 92.28 | 5.67 | 0.13 | 79.4 | lowest | 29.07 | 126.29 |  | 1.02E+08 | 1.56E+08 | 1.47E+06 | 1.35E+05 | 2.25E+07 | 2.21E+05 | 7.09E+05 |  |  |
| CCCCCCCCCOC(=O)CCCCCCCN(CCCCCCCC(=O)OC(CCCCCCCC)CCCCCCCC)CC(C)O (centres unmarked) [Compound 10, Heptadecan-9-yl 8-((2-hydroxypropyl)(8-(nonyloxy)-8-oxooctyl)amino) octanoate] | 89.60 | 6.09 | 0.18 | 102.9 | lowest | 88.81 | 138.16 |  | 6.03E+08 | 2.37E+09 | 4.04E+07 | 5.09E+05 | 3.22E+08 | 8.85E+05 | 8.17E+06 |  |  |

Continued, in another order:

| EE (%) [1] [%] | pKa [2] | PDI [3] | Size (nm) [3] [nm] | IP-10 induction (IL-6, IP-10; i.v., in words) | Cytokine induction IL-6 (IL-6, IP-10) | Cytokine induction IP-10 (IL-6, IP-10) | IL-6 induction (IL-6, IP-10; i.v., in words) | SMILES | Total Flux 3 hours (luciferase (Luc) mRNA [4]; mice, i.v., 0.5 mg/kg) | Total Flux 6 hours (luciferase (Luc) mRNA [4]; mice, i.v., 0.5 mg/kg) | Total Flux 24 hours (luciferase (Luc) mRNA [4]; mice, i.v., 0.5 mg/kg) | Total Flux Femur (luciferase (Luc) mRNA [5]) | Total Flux Liver (luciferase (Luc) mRNA [5]) | Total Flux Lung (luciferase (Luc) mRNA [5]) | Total Flux Spleen (luciferase (Luc) mRNA [5]) | Fold increase in total body Luc Flux relative to MC3 at 6 h (luciferase (Luc) mRNA [4]; Table 3A, i.v. administration) | flux at all timepoints measured (luciferase (Luc) mRNA [4]; mice, i.v., 0.5 mg/kg, 3, 6 and 24 hour, in words) |
| --- | --- | --- | --- | --- | --- | --- | --- | --- | --- | --- | --- | --- | --- | --- | --- | --- | --- |
| 91.32 | 5.52 | 0.16 | 119.0 |  | 32.01 | 206.75 |  | CCCCCCCCCOC(=O)CCCCCCCN(CCCCCCCC(=O)OC(CCCCCCCC)CCCCCCCC)CCCOC [Compound 16, Heptadecan-9-yl 8-((3-methoxypropyl)(8-(nonyloxy)-8-oxooctyl)amino) octanoate] | 2.58E+08 | 5.45E+08 | 2.37E+07 | 2.55E+05 | 3.17E+07 | 4.18E+05 | 5.43E+06 | 0.02 |  |
| 92.47 | 5.97 | 0.13 | 129.6 | lowest | 0.14 | 44.84 | lowest | CCCCCCCCCOC(=O)CCCCCCCN(CCCCCCCC(=O)OC(CCCCCCCC)CCCCCCCC)C[C@@H](C)O [Compound 11, Heptadecan-9-yl (R)-8-((2-hydroxypropyl)(8-(nonyloxy)-8-oxooctyl)amino)octanoate] | 3.38E+09 | 7.11E+09 | 1.15E+08 |  | 8.03E+08 | 1.35E+07 | 1.04E+08 |  |  |
| 96.00 | 6.21 | 0.22 | 80.2 |  | 90.54 | 976.50 |  | CCCCCCCCCOC(=O)CCCCCCCN(CCCCCCCC(=O)OC(CCCCCCCC)CCCCCCCC)C1CCCCC1O (centres unmarked) [Compound 22, Heptadecan-9-yl 8-((2-hydroxycyclohexyl)(8-(nonyloxy)-8-oxooctyl)amino)octanoate] | 6.57E+08 | 3.89E+08 | 2.73E+07 | 1.16E+05 | 4.00E+07 | 4.73E+05 | 1.57E+06 |  |  |
| 91.84 | 7.76 | 0.24 | 85.2 | lowest | 138.43 | 156.41 |  | CCCCCCCCCOC(=O)CCCCCCCN(CCCCCCCC(=O)OC(CCCCCCCC)CCCCCCCC)CCOCCN(C)C [Compound 17, Heptadecan-9-yl 8-((2-(2-(dimethylamino)ethoxy)ethyl) (8-(nonyloxy)-8-oxooctyl)amino)octanoate] | 7.72E+06 | 3.58E+06 | 6.79E+05 | 9.55E+04 | 5.52E+05 | 9.95E+04 | 5.58E+06 |  | significantly lower flux |
